Literature values in paper PMC12309854, “Evidencing the role of a conserved polar signaling channel in the activation mechanism of the μ-opioid receptor” (Computational and Structural Biotechnology Journal, 2025).
pKd: −log10 of the molar value.

Target: MOP
Design: method as in PMID 31527522
Details: value given in the method for the Cheng-Prusoff calculation, source not stated; protocol ref 58; read-out: Kd of the radioligand
Protocol: Binding assays were carried out following a previously published protocol, at 25 °C for a duration of 60 min using a 50 mM Tris–HCl buffer (pH 7.4) in glass tubes. […] Non-specific binding was evaluated u ...

DAMGO [[^3H]DAMGO]
pKd: 9.30
